# Like-named read-outs stand apart in the source and are kept apart here.
# Assays:
# [1] = system: residual DTG binding site; assay: Saturation binding on TMEM97/PGRMC1 double KO HeLa cell membranes; conditions: Double KO/Cas9 HeLa cell membranes, N.B. = no binding
# Description: (§1) For the cell membrane preparation for receptor binding, the cell pellets were taken out from the freezer, rinsed with 10 mL ice-cold PBS solution, and homogenized by using Wheaton overhead stirrer (120 Vac Overhead Stirrer, Millville, NJ, USA) at the speed of 2 for 30 sec. Then the cell solution was transferred to a 50 mL conical tube and centrifuged for 20 min at 31,000 × g, 4 °C. After centrifugation, the supernatant was discarded and the pellets were resuspended in 1 mL ice-cold PBS solution and stored at −80 °C freezer.
# (§2) After incubation, the bound ligands were collected with a M-24 Brandel filtration system (Brandel, Gaithersburg, MD, USA) on the glass fiber papers (Whatman grade 934-AH, GE Healthcare Bio-Sciences, Pittsburgh, PA), and counted with a MicroBeta[2] Microplate counter 2450 or Wizard2 Automatic Gamma Counter 2470. All the Kd and Bmax values were calculated from a nonlinear regression method with Prism, and the protein concentrations were determined by the method of Lowry et al.[4] with BSA as a standard.
# [2] = system: residual DTG binding site; assay: Saturation binding on TMEM97 KO HeLa cell membranes; conditions: for binding to TMEM97 KO HeLa cells: TMEM97 KO versus control, all three guide RNA sequences; for Kd: TMEM97 KO/Cas9 HeLa cell membranes, saturation binding, N.B. = no binding
# Description: as §1, §2
# σ2R [3] = biological target: T1, σ2R (Homo sapiens, UniProt Q5BJF2); assay: Saturation binding on PGRMC1 KO HeLa cell membranes; conditions: PGRMC1 KO/Cas9 HeLa cell membranes
# T1 construct: endogenous in cells; host or cells: HeLa control clone (non-specific CRISPR/Cas9 plasmid plus lentiCas9-Blast), membrane preparation
# T1 sequence (Q5BJF2 whole entry): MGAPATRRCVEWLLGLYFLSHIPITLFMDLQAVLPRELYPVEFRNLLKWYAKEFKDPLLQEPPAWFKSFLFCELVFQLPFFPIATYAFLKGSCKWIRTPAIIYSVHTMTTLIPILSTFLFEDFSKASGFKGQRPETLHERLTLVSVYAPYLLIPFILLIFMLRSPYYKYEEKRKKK
# Description: as §1, §2
# σ2R [4] = biological target: T1, σ2R; assay: Saturation binding on control (Scramble/Cas9) HeLa cell membranes
# Description: as §1, §2
# σ2R [5] = biological target: T1, σ2R; conditions: cited from earlier work; for Kd: no reference given
# HeLa cells = assay: Radiolabeled LDL uptake assay; format: cell-based; conditions: control HeLa cells, ligands 1 nM - 500 nM
# Description: Radiolabeled LDL was prepared by incubating human LDL (50 μg/mL) (LP2, Millipore) with [^3H]cholesterol (final concentration 3 μCi/mL) in serum-free MEM for 24 hours at 37 °C, filtered using a 0.2 μm filter, and used immediately. Care was taken not to vortex LDL to avoid aggregation of particles.
# Cells were plated on 6-well plates (1 × 10^5 cells per well) or for 96-well plates (1 × 10^4 cells per well) in MEM with 10% FBS, 100 I.U./ml penicillin, 100 µg/ml streptomycin, 2mM L-glutamine, and 1X MEM non-essential amino acids. After 24 hours, media was removed and cells were incubated with MEM containing 10% lipoprotein-depleted serum (LPDS) (AAJ65182AMG, Fisher Scientific) for an additional 24 hours. […] Cells were washed 3 times in PBS, incubated with scintillation fluid overnight, and counts per minute (cpm) were determined using a scintillation counter MicroBeta[2] Microplate counter 2450.
# [6] = control (Cas9) HeLa cell membranes, Supplementary Figure 2, duplicates, n=3
# [7] = σ2R, ligands previously described, read-out: Kd
compound,measurement,setting,value
Cc1ccccc1N=C(N)Nc1ccccc1C [[^3H]DTG],Kd,[1]; read-out: Kd,403 ± 110 nM
same,binding to TMEM97 KO HeLa cells,[2],"large, but incomplete, reduction"
same,Kd,[2]; read-out: Kd,302 ± 80.2 nM
"COc1cc2c(cc1OC)CN(CCCCNC(=O)c1cc([125I])cc(OC)c1OC)CC2 [[^125I]RHM-4, [^125I]N-(4-(6,7-dimethoxy-3,4-dihydroisoquinolin-2(1 H)-yl)butyl)-2,3-dimethoxy-5-iodo-benzamide]",Kd,[1],N.B.
same,Bmax,σ2R [3],2475 ± 51 fmol/mg
same,binding to TMEM97 KO HeLa cells,[2],complete reduction in binding
same,Kd,[2],N.B.
same,Bmax,σ2R [4]; Scramble/Cas9 control HeLa cell membranes,2545 ± 37 fmol/mg
same,Bmax,σ2R [4]; [6],2234.0 fmol/mg
COc1cc2c(cc1OC)CN(CCCCNC(=O)c1cc(C)ccc1OC)CC2 [RHM-1],Kd,σ2R [5]; [7],~0.66 nM
COc1ccc(C)cc1NC(=O)OC1CC2CCCC(C1)N2CCCCCCCCCCN (stereo not drawn) [SW43],Kd,σ2R [5]; [7],~12 nM
"COc1cc2c(cc1OC)CN(CCCCNC(=O)c1cc(I)cc(OC)c1OC)CC2 [[^125I]RHM-4, [^125I]N-(4-(6,7-dimethoxy-3,4-dihydroisoquinolin-2(1 H)-yl)butyl)-2,3-dimethoxy-5-iodo-benzamide]",Kd,σ2R [3]; saturation binding,2.66 ± 0.12 nM
same,Kd,"σ2R [4]; Scramble/Cas9 control HeLa cell membranes, saturation binding, 1 μM (+)-pentazocine to mask σ1R for [3H]DTG",0.88 ± 0.04 nM
same,Kd,σ2R [4]; [6],1.1 ± 0.2 nM
"COc1cc2c(cc1OC)CN(CCCCNC(=O)c1cc(I)cc(OC)c1OC)CC2 [RHM-4, N-(4-(6,7-dimethoxy-3,4-dihydroisoquinolin-2(1H)-yl)butyl)-2,3-dimethoxy-5-iodo-benzamide]",Kd,σ2R [5]; [7],~0.2 nM
same,effect on uptake of LDL labeled with [3H]cholesterol,HeLa cells,blocking the uptake of LDL
Cc1ccc2c(c1)[C@H]1CN(C)CC[C@H]1N2C(=O)CSc1nnnn1-c1ccc(Cl)cc1 [AG-205],Kd,"σ2R [5]; against σ2R, read-out: Kd against σ2R",~1000 nM
same,Ki,"σ2R [5]; displacing DTG, no unit and reference not given",~1260 nM
